According to patent US11931365B2, “Use of PPAR-delta agonists in the treatment of disease” (Reneo Pharmaceuticals, Inc., priority 2022, dated 2024):

Key:
LXRα = LXRα (Homo sapiens, UniProt Q13133); experiment: Nuclear receptor activity
LXRβ = LXRβ (Homo sapiens, UniProt P55055); experiment: Nuclear receptor activity
[1] = tested on: patients with FAOD (CPT2, VLCAD, LCHAD, TFP); experiment: Clinical trial for fatty acid oxidation disorder (FAOD); type: in vivo, human; details: for 12 MWT Mean Change / MFIS Total Mean Change / SF-36 Energy/Fatigue Mean Change / decrease in MFIS / increase in SF-36 energy/fatigue domain: Baseline to Week 12
Description: Purpose: The purposes of this study were: to assess the safety and tolerability of 12 weeks treatment with Compound I, or a pharmaceutically acceptable salt or solvate thereof (e.g., Compound II), in patients with FAOD; to investigate pharmacokinetics of Compound I, or a pharmaceutically acceptable salt or solvate thereof (e.g., Compound II), in patients with FAOD treated with Compound I, or a pharmaceutically acceptable salt or solvate thereof (e.g., Compound II); to investigate the pharmacodynamics effects of Compound I, or a pharmaceutically acceptable salt or solvate thereof (e.g., Compound II), in patients with FAOD treated with Compound I, or a pharmaceutically acceptable salt or solvate thereof (e.g., Compound II).
Intervention: Patients were administered 10-200 mg of Compound I, or a pharmaceutically acceptable salt or solvate thereof (e.g., Compound II), per day as single agent or in combination. In one cohort, patients received 50 mg of Compound I, or a pharmaceutically acceptable salt or solvate thereof (e.g., Compound II), once daily for a total of 12 weeks. In another cohort, patients received 100 mg of Compound I, or a pharmaceutically acceptable salt or solvate thereof (e.g., Compound II), once daily for a total of 12 weeks.
Detailed Description: Patients were given Compound I, or a pharmaceutically acceptable salt or solvate thereof, orally once a day.
Inclusion Criteria: Confirmed diagnosis of one of the following: carnitine palmitoyl transferase II deficiency (CPT2), very long-chain Acyl-CoA dehydrogenase deficiency (VLCAD), long-chain 3-hydroxyacyl-CoA dehydrogenase deficiency (LCHAD), or trifunctional protein deficiency (TFP).
Primary Outcome Measures: Safety Endpoints included: number and severity of adverse events. Absolute values, changes from baseline at Week 12 and incidence of clinically significant changes in: laboratory safety tests; electrocardiograms; supine vital signs; evaluation of events of special interest (rhabdomyolysis) and clinically significant changes in laboratory parameters of muscle injury including total CPK, adolase, and cardiac specific troponin (cTn).
Pharmacodynamic Endpoints included: Absolute values and changes from baseline at Week 12 in: whole body fatty acid oxidation (^13CO2 production) and blood acylcarnitines (UHPLC-MS/MS method).
Secondary Outcome Measures: Assessment of the change from baseline following 12 weeks of treatment with Compound I, or a pharmaceutically acceptable salt or solvate thereof (e.g., Compound II), in: submaximal treadmill exercise tolerance; distance walked during a 12 minute walk test; 36-Item Short Form Survey (SF-36) total score and subscales (questions 3-12). Change from baseline in Fatigue Impact Scale score (every visit). Change from baseline in Brief Pain Inventory (short form) (every visit). Blood inflammatory cytokines (Multiplex Immunoassay for sE-Selectin; GM-CSF; ICAM-1/CD54; IFN alpha; IFN gamma; IL-1 alpha; IL-1 beta; IL-4; IL-6; IL-8; IL-10; IL-12p70; IL-13; IL-17A/CTLA-8; IP-10/CXCL10; MCP-1/CCL2; MIP-1alpha/CCL3; MIP-1 beta/CCL4; sP-Selectin; TNF alpha).

[2] = 24 patients, 50 or 100 mg/day, 12 weeks

Chain of LXRα (Q13133 whole entry): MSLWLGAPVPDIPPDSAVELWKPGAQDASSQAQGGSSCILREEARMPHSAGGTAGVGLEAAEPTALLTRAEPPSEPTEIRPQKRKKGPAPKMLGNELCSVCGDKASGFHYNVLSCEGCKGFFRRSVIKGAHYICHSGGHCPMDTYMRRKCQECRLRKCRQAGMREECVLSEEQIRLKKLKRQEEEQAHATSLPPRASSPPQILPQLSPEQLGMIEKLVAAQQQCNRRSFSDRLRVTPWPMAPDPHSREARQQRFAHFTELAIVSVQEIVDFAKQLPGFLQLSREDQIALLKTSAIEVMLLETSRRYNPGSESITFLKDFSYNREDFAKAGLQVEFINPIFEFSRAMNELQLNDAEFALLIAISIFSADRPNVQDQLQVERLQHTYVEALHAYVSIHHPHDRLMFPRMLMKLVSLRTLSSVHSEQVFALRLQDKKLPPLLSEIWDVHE
Chain of LXRβ (P55055 whole entry, the tested form may be a part): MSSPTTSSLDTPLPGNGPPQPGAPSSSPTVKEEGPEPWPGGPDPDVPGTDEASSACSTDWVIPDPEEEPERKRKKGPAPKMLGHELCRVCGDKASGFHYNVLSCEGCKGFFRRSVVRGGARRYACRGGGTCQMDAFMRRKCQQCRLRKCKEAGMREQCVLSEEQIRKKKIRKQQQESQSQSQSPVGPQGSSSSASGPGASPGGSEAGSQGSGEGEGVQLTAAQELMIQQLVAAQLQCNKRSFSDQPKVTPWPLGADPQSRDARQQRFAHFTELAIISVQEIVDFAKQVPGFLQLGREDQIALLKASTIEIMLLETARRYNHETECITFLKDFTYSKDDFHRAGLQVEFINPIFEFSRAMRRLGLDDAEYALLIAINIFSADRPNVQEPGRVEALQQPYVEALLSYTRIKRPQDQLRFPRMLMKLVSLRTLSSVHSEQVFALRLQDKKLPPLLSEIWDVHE

In the case of `Cc1cc(OC/C=C(/c2ccc(F)cc2)c2ccc(C#CCN3CCOCC3)cc2)ccc1OCC(=O)O` [Compound I, (E)-2-(4-((3-(4-fluorophenyl)-3-(4-(3-morpholinoprop-1-yn-1-yl)phenyl)allyl)oxy)-2-methylphenoxy)acetic acid], the “activity on nuclear receptor LXRα” value (LXRα) is reported as “did not show any”, the “activity on nuclear receptor LXRβ” value (LXRβ) is reported as “did not show any” and the “distance walked during a 12-minute walk test” value ([1]; 50 mg once daily, 12 weeks) is reported as “able to increase distance walked”. The “exhaled 13CO2” value ([1]; 50 mg once daily, 12 weeks) was “trend towards increases”, the “heart rate during the last ten minutes of exercise” value ([1]; 50 mg once daily, 12 weeks) was “decreases” and the “TEAEs reported as study drug related” value [1, 2] was 30%. The patients discontinuing treatment [1, 2] was 12.5%, the “patients reporting rhabdomyolysis (most common TEAE)” value [1, 2] was 16.7% and the “patients reporting treatment-emergent adverse events (TEAEs)” value [1, 2] was 75%. The “severity of the majority of study drug related TEAEs” value [1, 2] was “mild or moderate”, the “12 MWT Mean Change” value ([1]; CPT2 subgroup) was 51.9 meters and the “MFIS Total Mean Change” value ([1]; CPT2 subgroup) was 1.0. For the same compound, the “SF-36 Energy/Fatigue Mean Change” value ([1]; CPT2 subgroup) was 0.8, the tolerability ([1]; FAOD patients) was “well tolerated” and the “12 MWT Mean Change” value ([1]; LCHAD subgroup) was 73.7 meters. For the same compound, the “MFIS Total Mean Change” value ([1]; LCHAD subgroup) was −9.8, the “SF-36 Energy/Fatigue Mean Change” value ([1]; LCHAD subgroup) was 19.5 and the “decrease in MFIS” value ([1]; LCHAD subgroup) was 9.8 point. The “increase in SF-36 energy/fatigue domain” value ([1]; LCHAD subgroup) was 19.5 point, the “decrease in MFIS” value ([1]; TFP subgroup (n = 2)) was 8.0 point and the “increase in SF-36 energy/fatigue domain” value ([1]; TFP subgroup (n = 2)) was 25.0 point. For the same compound, the “12 MWT Mean Change” value ([1]; VLCAD subgroup) was −36.7 meters, the “MFIS Total Mean Change” value ([1]; VLCAD subgroup) was 15.6 and the “SF-36 Energy/Fatigue Mean Change” value ([1]; VLCAD subgroup) was −17.8.
